For one compound, inhibition results are on record in PMC6704710, “Preclinical evaluation of 3D185, a novel potent inhibitor of FGFR1/2/3 and CSF-1R, in FGFR-dependent and macrophage-dominant cancer models” (Journal of Experimental & Clinical Cancer Research : CR, 2019).

A word on the inhibition: it is the change of the read-out against control, counted positive when it falls.

What all share (assay): Eurofins kinase panel
Common to all, as to type: biochemical
What all share (settings): read-out: Inhibition rate (%)

The target of one test is T1, CaMKIIβ(h) (Homo sapiens, UniProt Q13554).
T1 construct: purchased Eurofins (KinaseProfiler)
T1 sequence (Q13554 whole entry): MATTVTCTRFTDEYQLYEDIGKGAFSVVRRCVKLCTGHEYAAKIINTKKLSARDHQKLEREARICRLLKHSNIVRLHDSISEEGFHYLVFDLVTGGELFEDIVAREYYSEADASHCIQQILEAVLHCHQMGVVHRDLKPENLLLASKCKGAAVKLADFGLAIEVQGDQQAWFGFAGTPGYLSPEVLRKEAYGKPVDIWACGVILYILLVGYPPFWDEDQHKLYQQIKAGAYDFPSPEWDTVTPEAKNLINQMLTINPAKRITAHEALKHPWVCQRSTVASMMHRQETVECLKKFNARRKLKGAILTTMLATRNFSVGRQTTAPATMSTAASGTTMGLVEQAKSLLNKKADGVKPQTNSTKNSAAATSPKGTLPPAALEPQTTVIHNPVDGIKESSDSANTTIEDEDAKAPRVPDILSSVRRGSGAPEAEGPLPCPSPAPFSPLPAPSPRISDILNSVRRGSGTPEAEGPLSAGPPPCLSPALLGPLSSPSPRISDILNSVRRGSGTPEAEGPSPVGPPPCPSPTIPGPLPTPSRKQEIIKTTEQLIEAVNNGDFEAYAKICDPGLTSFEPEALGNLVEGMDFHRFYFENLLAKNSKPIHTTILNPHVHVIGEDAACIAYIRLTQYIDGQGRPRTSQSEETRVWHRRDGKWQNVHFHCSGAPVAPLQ

Another test deals with T2, MSK2(h) (Homo sapiens, UniProt O75676).
T2 construct: purchased Eurofins (KinaseProfiler)
T2 sequence (O75676 whole entry): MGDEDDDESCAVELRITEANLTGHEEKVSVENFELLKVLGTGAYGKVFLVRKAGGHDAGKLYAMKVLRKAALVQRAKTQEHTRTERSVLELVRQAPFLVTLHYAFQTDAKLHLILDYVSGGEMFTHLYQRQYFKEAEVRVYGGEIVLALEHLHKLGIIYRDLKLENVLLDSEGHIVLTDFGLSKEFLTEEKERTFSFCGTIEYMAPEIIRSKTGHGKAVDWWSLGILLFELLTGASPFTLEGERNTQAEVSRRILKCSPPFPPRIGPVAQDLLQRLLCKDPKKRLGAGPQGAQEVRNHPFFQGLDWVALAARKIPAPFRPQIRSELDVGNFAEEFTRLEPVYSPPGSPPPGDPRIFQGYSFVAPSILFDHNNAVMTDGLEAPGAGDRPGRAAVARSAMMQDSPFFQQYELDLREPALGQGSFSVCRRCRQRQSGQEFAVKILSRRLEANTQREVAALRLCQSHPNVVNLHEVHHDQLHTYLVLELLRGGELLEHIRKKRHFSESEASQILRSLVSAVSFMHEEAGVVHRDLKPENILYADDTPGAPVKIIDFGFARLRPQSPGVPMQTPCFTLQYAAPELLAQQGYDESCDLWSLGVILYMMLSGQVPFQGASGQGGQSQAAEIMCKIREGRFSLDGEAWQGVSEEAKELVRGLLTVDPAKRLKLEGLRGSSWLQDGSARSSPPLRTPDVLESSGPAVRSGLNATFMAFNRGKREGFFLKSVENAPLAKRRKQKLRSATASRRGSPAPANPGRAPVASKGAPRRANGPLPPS

The target in a further test is T3, PKD2(h) (Homo sapiens, UniProt Q9BZL6).
T3 construct: purchased Eurofins (KinaseProfiler)
T3 sequence (Q9BZL6 1-878): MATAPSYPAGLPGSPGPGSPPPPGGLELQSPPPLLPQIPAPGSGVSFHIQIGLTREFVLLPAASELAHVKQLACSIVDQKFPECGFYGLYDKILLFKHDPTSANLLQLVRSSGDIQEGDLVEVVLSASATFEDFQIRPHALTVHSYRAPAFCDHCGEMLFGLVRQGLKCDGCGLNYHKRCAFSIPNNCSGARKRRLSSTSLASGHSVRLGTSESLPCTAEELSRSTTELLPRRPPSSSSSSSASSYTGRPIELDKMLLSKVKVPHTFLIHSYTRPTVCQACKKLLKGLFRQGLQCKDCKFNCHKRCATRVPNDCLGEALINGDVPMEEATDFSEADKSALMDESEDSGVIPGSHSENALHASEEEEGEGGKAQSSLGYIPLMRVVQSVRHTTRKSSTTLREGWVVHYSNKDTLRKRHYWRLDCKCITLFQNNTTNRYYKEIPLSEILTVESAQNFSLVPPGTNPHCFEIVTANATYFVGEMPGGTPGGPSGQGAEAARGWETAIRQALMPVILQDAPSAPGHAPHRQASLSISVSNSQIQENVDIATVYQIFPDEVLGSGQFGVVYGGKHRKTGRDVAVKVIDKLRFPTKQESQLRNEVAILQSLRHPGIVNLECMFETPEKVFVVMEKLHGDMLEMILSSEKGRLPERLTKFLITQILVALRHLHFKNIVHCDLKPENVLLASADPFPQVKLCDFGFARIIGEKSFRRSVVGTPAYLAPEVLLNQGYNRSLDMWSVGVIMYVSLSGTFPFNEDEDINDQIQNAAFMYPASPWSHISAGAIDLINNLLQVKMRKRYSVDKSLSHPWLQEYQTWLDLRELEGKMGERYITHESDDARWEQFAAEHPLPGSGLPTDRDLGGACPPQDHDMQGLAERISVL

The target in the next test is T4, Plk4(h) (Homo sapiens, UniProt O00444).
T4 construct: purchased Eurofins (KinaseProfiler)
T4 sequence (O00444 1-970): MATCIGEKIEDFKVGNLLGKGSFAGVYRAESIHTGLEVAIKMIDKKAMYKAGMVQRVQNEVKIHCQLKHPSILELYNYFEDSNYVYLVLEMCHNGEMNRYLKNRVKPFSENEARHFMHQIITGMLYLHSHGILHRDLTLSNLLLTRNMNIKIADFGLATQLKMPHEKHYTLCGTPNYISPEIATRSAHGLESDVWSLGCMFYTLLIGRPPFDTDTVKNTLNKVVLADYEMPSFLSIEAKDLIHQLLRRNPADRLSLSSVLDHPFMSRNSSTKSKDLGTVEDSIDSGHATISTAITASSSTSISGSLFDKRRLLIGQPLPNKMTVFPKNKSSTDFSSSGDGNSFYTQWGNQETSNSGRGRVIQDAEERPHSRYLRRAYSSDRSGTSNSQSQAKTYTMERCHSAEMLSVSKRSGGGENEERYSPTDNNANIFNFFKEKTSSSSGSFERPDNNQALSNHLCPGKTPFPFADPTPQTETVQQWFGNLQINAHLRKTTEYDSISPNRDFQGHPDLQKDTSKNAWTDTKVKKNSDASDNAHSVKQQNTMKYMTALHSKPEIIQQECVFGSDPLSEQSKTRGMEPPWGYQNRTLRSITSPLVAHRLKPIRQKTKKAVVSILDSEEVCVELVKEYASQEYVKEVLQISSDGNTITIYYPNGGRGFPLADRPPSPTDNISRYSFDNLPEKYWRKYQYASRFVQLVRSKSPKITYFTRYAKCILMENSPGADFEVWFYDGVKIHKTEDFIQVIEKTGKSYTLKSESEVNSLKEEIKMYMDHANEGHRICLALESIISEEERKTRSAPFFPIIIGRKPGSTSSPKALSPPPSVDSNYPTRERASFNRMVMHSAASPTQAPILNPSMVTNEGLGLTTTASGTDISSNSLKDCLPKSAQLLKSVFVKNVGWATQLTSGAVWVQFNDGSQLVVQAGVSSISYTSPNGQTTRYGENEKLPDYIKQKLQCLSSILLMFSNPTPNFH

The next test deals with T5, Rsk1(r) (Rattus norvegicus, UniProt Q63531).
T5 construct: purchased Eurofins (KinaseProfiler)
T5 sequence (Q63531 whole entry): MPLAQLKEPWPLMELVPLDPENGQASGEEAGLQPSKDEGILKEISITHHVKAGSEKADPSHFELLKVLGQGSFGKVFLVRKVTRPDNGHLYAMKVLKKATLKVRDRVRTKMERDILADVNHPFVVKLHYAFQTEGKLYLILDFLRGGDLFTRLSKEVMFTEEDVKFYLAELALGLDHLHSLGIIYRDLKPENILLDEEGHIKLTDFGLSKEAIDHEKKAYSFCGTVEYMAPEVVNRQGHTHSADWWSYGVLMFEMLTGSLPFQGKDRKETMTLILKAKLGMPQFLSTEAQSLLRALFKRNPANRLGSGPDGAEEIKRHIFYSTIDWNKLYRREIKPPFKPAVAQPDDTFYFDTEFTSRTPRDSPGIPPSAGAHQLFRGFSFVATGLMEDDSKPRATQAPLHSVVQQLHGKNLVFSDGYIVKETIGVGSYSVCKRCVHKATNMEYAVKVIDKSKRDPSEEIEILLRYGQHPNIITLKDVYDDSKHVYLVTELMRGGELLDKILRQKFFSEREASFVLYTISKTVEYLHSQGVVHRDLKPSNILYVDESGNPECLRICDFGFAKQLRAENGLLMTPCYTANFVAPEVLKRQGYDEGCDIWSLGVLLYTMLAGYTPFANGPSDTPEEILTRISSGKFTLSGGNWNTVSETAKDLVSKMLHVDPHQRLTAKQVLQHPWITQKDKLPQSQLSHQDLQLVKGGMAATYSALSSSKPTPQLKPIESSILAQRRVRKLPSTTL

In the case of `COc1cc(OC)c(Cl)c(-c2ccc3c(NC(=O)c4ccc(N5CCNC(C)(C)C5)cc4)n[nH]c3n2)c1Cl` [3D185], the inhibition at 0.01 µM at CaMKIIβ(h) (10 nM) was -1%; at MSK2(h) (10 nM) it was 10%; at PKD2(h) (10 nM), 7%; on Plk4(h) (10 nM) it was -18%; at Rsk1(r) (10 nM) it was -17%. Also, the inhibition at 0.1 µM on CaMKIIβ(h) (100 nM) was -3%; on MSK2(h) (100 nM) it was 25%; on PKD2(h) (100 nM) it was -4%; on Plk4(h) (100 nM) it was -20%; at Rsk1(r) (100 nM), 8%. Also, the inhibition at 1 µM on CaMKIIβ(h) (1000 nM) was -4%; at MSK2(h) (1000 nM) it was 49%; on PKD2(h) (1000 nM), 3%; on Plk4(h) (1000 nM), -17%; on Rsk1(r) (1000 nM), 30%.
